Source: patent US20250325508A1, “MODULATORS OF PROTEASOME DYNAMICS AND/OR FUNCTION, COMPOSITIONS, METHODS, AND THERAPEUTIC USES THEREOF” (TECHNION RESEARCH & DEVELOPMENT FOUNDATION LIMITED, priority 2022, published 2025)

Assays:
26S proteasome = assay: Proteasome subcellular localization in cultured cells (immunofluorescence, cell fractionation/Western blot); format: cell-based, human; settings: for proteasome translocation from the nucleus to the cytosol: amino acid starvation, substance added to starvation medium; for proteasome localization: non-stressed / well-fed cells, complete medium; for proteasome dynamics under known p38 activators: RT4 and HeLa cells
Description: Cells were incubated for 20 min in fractionation buffer [20 mM HEPES pH 7.3, 10 mM KCl, 5 mM ATP, 5 mM MgCl2, and protease inhibitor cocktail (Roche)], followed by the addition of Digitonin (0.01%). They were then mixed thoroughly and centrifuged at 1,000×g for 5 min. The supernatant was collected as cytosolic fraction, and the pellet was washed with fractionation buffer supplemented with NP-40 (0.05%) and centrifuged, and the pellet (nuclei) was resuspended in fractionation buffer supplemented with sodium deoxycholate (0.5%), followed by its sonication.
(§1) Cells were washed twice with ice cold PBS and scraped into lysis buffer (50 mM Tris-HCl, pH 7.4, 130 mM NaCl, 0.5% NP-40) supplemented with freshly added protease inhibitor cocktail, 5 mM ATP, 10 mM iodoacetamide, and 5 mM N-ethyl maleimide. Protein concentration was measured by the BCA assay according to the manufacturer's instructions (Pierce, Rockford, IL). 30 μg of cellular protein were resolved via SDS-PAGE, transferred to a nitrocellulose membrane and immunoblotted with the appropriate antibody.
Cells were seeded on glass cover slips for 36 h. Following the indicated treatments, they were fixed with 4% PFA for 15 min, washed with phosphate-buffered saline (PBS) and incubated in PBS containing 10% goat serum for 1 h at room temperature, followed by 2 h incubation with the indicated primary antibody. Following extensive wash with PBS, the fixed cells were incubated with the relevant secondary antibody for 1 h, washed and mounted. Images were acquired using Zeiss LSM 700 confocal microscope (Zeiss, Oberkochen, Germany). […]

HeLa cells = assay: Amino acids level measurement (LC-MS); format: cell-based, human; settings: Torin1 treatment relative to control
Description: Metabolic analysis was carried out as previously described [G. M. MacKay et al., 1st Ed. (Elsevier Inc., 2015)]. Briefly, cells were rapidly washed 3 times with ice-cold PBS and extracted with an aqueous solution of 50% Methanol, and 30% Acetonitrile. Samples were centrifuged at 16,000×g for 10 min at 4° C., and the supernatants were analyzed using HPLC-MS (Q-Exactive Orbitrap Mass Spectrometer (Thermo Scientific) coupled to Thermo Scientific UltiMate 3000 HPLC system). The HPLC setup consisted of a ZIC-PHILIC column (SeQuant, 150×2.1 mm, 5 μm, Merck) with a ZIC-PHILIC guard column (SeQuant, 20×2.1 mm). The aqueous mobile phase solvent was 20 mM ammonium carbonate adjusted to pH 9.4 with 0.1% ammonium hydroxide. The organic mobile phase was acetonitrile. Amino acids and other metabolites were separated over a 15 min linear gradient from 80% organic to 80% aqueous. The column temperature was 45° C., the flow rate 200 μl/min, and the run time 27 min. All metabolites were detected across a mass range of 75-1,000 m/z using the Q-Exactive mass spectrometer at a resolution of 35,000 (at 200 m/z) with electrospray ionization and polarity switching mode. Mass accuracy obtained for all metabolites was below 5 ppm. Data were acquired with Thermo Xcalibur software. The peak areas of different amino acids were determined using Thermo TraceFinder software through which metabolites were identified by the exact mass of the singly charged ion and the known retention time on the HPLC column. Commercially available standard compounds had been analyzed before to determine ion masses and retention times on the ZIC-PHILIC column. Protein quantitation based on the Lowry method was performed for normalization. The figure presents mean+/−SD of three replicates.

STAT3 = assay: Western blot for STAT3 phosphorylated at Tyr705; format: cell-based, human; settings: Torin1 treatment
Description: as §1

HeLa and RT4 cells = assay: Cell survival assay (live/dead imaging); format: cell-based
Description: Data analysis was performed using the Live/Dead module of the MetaXpress software (Molecular Devices). […] Intensities were quantified using Li-Cor imager and software (Odyssey).

Which “proteasome translocation from the nucleus to the cytosol” value (shortened to “proteasome translocation”) (26S proteasome) does the source give for `N[C@@H](Cc1ccccc1)C(=O)O` [Phe, Phenylalanine] here?
Its value is “inhibitory effect on proteasome translocation”.

For `O=[N+]([O-])c1ccc2c(c1)S(=O)(=O)C=C2` [Stattic], which “proteasome translocation” value (26S proteasome) is on record?
The value was “prevented proteasome translocation from the nucleus to the cytosol”.

For `CCC(=O)N1CCN(c2ccc(-n3c(=O)ccc4cnc5ccc(-c6cnc7ccccc7c6)cc5c43)cc2C(F)(F)F)CC1` [Torin1], which “level of amino acids” value (HeLa cells) is on record?
Its value is “gain in amino acids”.

What about the “STAT3 Y705 phosphorylation” value (STAT3) of the same compound?
Its value is “upregulation of Y705 phosphorylation”.

And the proteasome localization (26S proteasome)?
Its proteasome localization is “induced nuclear export of both 20S and 19S sub-complexes”.

With `N[C@@H](Cc1c[nH]c2ccccc12)C(=O)O` [Trp, Tryptophan] as the compound, how does the “proteasome translocation” value (26S proteasome) read?
The value was “inhibitory effect on proteasome translocation”.

Which “proteasome translocation” value (26S proteasome) does the source give for `N[C@@H](Cc1ccc(O)cc1)C(=O)O` [Tyr, 4-hydroxyphenylalanine] here?
The value was “inhibitory effect on proteasome translocation”.

How did the “proteasome dynamics under known p38 activators” value (26S proteasome) turn out when `COc1ccc(C[C@H]2NC[C@H](O)[C@H]2OC(C)=O)cc1` [anisomycin] was run?
The value was “the proteasome was locked in the nucleus”.

What about the “cell death under known p38 activators” value (HeLa and RT4 cells) of the same compound?
The value was “many of the cells died”.

For `C[C@@H]1C[C@@H]([C@H](O)CC2CC(=O)NC(=O)C2)C(=O)[C@@H](C)C1` [cycloheximide], which “restoration of the nuclear proteasomal pool” value (26S proteasome; replenishment of amino acids after starvation, in presence of substance) is on record?
The value was “did not prevent restoration of the nuclear proteasomal pool”.

What does the source list for `OC[C@@H](O)[C@@H](O)[C@H](O)[C@@H](O)CO` [hyperosmotic stress, Sorbitol]?
proteasome dynamics under known p38 activators (26S proteasome): the proteasome was locked in the nucleus; cell death under known p38 activators (HeLa and RT4 cells): many of the cells died

How did the proteasome localization (26S proteasome) turn out when Ivermectin was run?
Its proteasome localization is “cytosolic accumulation”.
